Our source for the ring closure, isolated yield, EC50 and Ki values is US8937080B2, “Pyrimidine substituted macrocyclic HCV inhibitors” (Medivir AB, priority 2007, dated 2015).

The conditions of data set [1]: from C=CCCCCN(C)C(=O)C1CC(Oc2cc(-c3ccccc3)nc(-c3ccccc3)n2)CC1C(=O)NC1(C(=O)OCC)CC1C=C; rcm bond; 14-membered ring; Hoveyda-Grubbs II; DCE; 1.66 mM; 16.0 h.
The subject of data set [2] is HCV replicons (wild type NS3-NS5B regions of HCV type 1b) in Huh-7 luc/neo cells. The experiment in a line: Replicon assay (Huh-Luc cells, luciferase readout). It is filed as cell-based. As to conditions: Hepatitis C virus, Huh-7, 72 h, incubation of three days, luciferase activity. From the text:
The compounds of formula (I) were examined for activity in the inhibition of HCV RNA replication in a cellular assay. […] The cellular assay was based on a bicistronic expression construct, as described by Lohmann et al. (1999) Science vol. 285 pp. 110-113 with modifications described by Krieger et al. (2001) Journal of Virology 75: 4614-4624, in a multi-target screening strategy. In essence, the method was as follows.
The assay utilized the stably transfected cell line Huh-7 luc/neo (hereafter referred to as Huh-Luc). This cell line harbors an RNA encoding a bicistronic expression construct comprising the wild type NS3-NS5B regions of HCV type 1b translated from an Internal Ribosome Entry Site (IRES) from encephalomyocarditis virus (EMCV), preceded by a reporter portion (FfL-luciferase), and a selectable marker portion (neo^R, neomycine phosphotransferase). The construct is bordered by 5′ and 3′ NTRs (non-translated regions) from HCV type 1b. Continued culture of the replicon cells in the presence of G418 (neo^R) is dependent on the replication of the HCV RNA. The stably transfected replicon cells that express HCV RNA, which replicates autonomously and to high levels, encoding inter alia luciferase, are used for screening the antiviral compounds.
The replicon cells were plated in 384 well plates in the presence of the test and control compounds which were added in various concentrations. Following an incubation of three days, HCV replication was measured by assaying luciferase activity (using standard luciferase assay substrates and reagents and a Perkin Elmer ViewLux™ ultraHTS microplate imager). Replicon cells in the control cultures have high luciferase expression in the absence of any inhibitor. The inhibitory activity of the compound on luciferase activity was monitored on the Huh-Luc cells, enabling a dose-response curve for each test compound. EC50 values were then calculated, which value represents the amount of the compound required to decrease by 50% the level of detected luciferase activity, or more specifically, the ability of the genetically linked HCV replicon RNA to replicate.

The target of data set [3] is HCV NS3/4A protease complexes (full-length hepatitis C NS3 protease enzyme with NS4A cofactor) (Hepatitis C virus genotype 1a, UniProt P27958). In words: Inhibition assay (enzymatic assay, depsipeptide substrate hydrolysis). In kind it is biochemical. As to conditions: enzyme 1 nM, 25 μM NS4A cofactor, 0.5 μM substrate, 30° C., competitive inhibition model. The method, then:
The aim of this in vitro assay is to measure the inhibition of HCV NS3/4A protease complexes by the compounds of the present invention. This assay provides an indication of how effective compounds of the present invention would be in inhibiting HCV NS3/4A proteolytic activity.
The inhibition of full-length hepatitis C NS3 protease enzyme was measured essentially as described in Poliakov, 2002 Prot Expression & Purification 25 363 371. Briefly, the hydrolysis of a depsipeptide substrate, Ac-DED(Edans)EEAbuψ[COO]ASK(Dabcyl)-NH2 (AnaSpec, San José, USA), was measured spectrofluorometrically in the presence of a peptide cofactor, KKGSVVIVGRIVLSGK (Åke Engström, Department of Medical Biochemistry and Microbiology, Uppsala University, Sweden). [Landro, 1997 #Biochem 36 9340-9348]. The enzyme (1 nM) was incubated in 50 mM HEPES, pH 7.5, 10 mM DTT, 40% glycerol, 0.1% n-octyl-D-glucoside, with 25 μM NS4A cofactor and inhibitor at 30° C. for 10 min, whereupon the reaction was initiated by addition of 0.5 μM substrate. Inhibitors were dissolved in DMSO, sonicated for 30 sec. and vortexed. The solutions were stored at −20° C. between measurements.
The final concentration of DMSO in the assay sample was adjusted to 3.3%. The rate of hydrolysis was corrected for inner filter effects according to published procedures.
[Liu, 1999 Analytical Biochemistry 267 331-335]. Ki values were estimated by non-linear regression analysis (GraFit, Erithacus Software, Staines, MX, UK), using a model for competitive inhibition and a fixed value for Km (0.15 μM). A minimum of two replicates was performed for all measurements.

Each structure is given as a SMILES string. A value given as a limit tells only on which side of the number the result lay.

Sequence of HCV NS3/4A protease complexes (full-length hepatitis C NS3 protease enzyme with NS4A cofactor) (P27958 1027-1657, other chains not shown): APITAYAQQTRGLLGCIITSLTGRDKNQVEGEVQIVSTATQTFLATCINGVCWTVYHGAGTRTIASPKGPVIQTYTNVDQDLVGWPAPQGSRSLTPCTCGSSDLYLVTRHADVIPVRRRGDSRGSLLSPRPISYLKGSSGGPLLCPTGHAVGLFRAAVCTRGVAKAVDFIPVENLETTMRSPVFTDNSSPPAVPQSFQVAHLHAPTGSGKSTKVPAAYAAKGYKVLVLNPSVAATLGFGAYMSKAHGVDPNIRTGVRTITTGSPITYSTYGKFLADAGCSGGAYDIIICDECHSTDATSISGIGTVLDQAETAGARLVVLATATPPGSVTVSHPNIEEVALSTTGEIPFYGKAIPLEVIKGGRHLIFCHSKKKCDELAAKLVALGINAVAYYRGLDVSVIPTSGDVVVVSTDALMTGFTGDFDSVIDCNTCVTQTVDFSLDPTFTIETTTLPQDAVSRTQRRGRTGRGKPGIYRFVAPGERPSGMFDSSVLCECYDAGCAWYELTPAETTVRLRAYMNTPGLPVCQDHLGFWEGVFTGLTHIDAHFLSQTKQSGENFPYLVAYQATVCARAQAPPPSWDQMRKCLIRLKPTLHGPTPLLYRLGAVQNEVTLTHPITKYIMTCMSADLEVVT

Compound `CCOC(=O)C12CC1C=CCCCCN(C)C(=O)C1CC(Oc3cc(-c4ccccc4)nc(-c4ccccc4)n3)CC1C(=O)N2` (stereo not shown) had a ring closure, isolated yield in data set [1] of 76%. Broadly, the EC50 is the concentration at which the effect is half-maximal. A high value points to a need for much substance. As a reminder, the Ki is the dissociation constant of the complex between target and ligand, obtained from inhibition or displacement. High values mean a looser hold on the target, low ones a stronger hold on the target. Compound `COc1nc(OC2CC3C(=O)NC4(C(=O)NS(=O)(=O)C5CC5)CC4C=CCCCCN(C)C(=O)N3C2)cc(-c2ccccc2)n1` (stereo not shown) [Example 1, Cyclopropanesulfonic acid [17-(2-methoxy-6-phenyl-pyrimidin-4-yloxy)-13-methyl-2,14-dioxo-3,13,15-triaza-tricyclo[13.3.0.0*4,6*]octadec-7-ene-4-carbonyl]-amide] showed an EC50 in data set [2] of 1000 to 10000 nM. In data set [3], this compound displayed a Ki of 0.1 to 4.9 nM.

In data set [2], `COc1nc(OC2CC3C(=O)NC4(C(=O)NS(=O)(=O)C5CC5)CC4C=CCCCCCNC(=O)N3C2)cc(-c2ccccc2)n1` (stereo not shown) [Example 2, Cyclopropanesulfonic acid [18-(2-methoxy-6-phenylpyrimidin-4-yloxy)-2,15-dioxo-3,14,16-triaza-tricyclo[14.3.0.0*4,6*]nonadec-7-ene-4-carbonyl]-amide] gave an EC50 of 1000 to 10000 nM. This compound also returned an inhibition constant Ki in data set [3] of 0.1 to 4.9 nM.

`COc1nc(OC2CC3C(=O)NC4(C(=O)NS(=O)(=O)C5CC5)CC4C=CCCCCN(C)C(=O)C3C2)cc(C(C)(C)C)n1` (stereo not shown) [Example 3, Cyclopropanesulfonic acid [17-(6-tert-butyl-2-methoxypyrimidin-4-yloxy)-13-methyl-2,14-dioxo-3,13-diaza-tricyclo[13.3.0.0*4,6*]octadec-7-ene-4-carbonyl]amide] displayed an EC50 in data set [2] of 1000 to 10000 nM. Moreover, the Ki in data set [3] was in the range of 5 to 99.9 nM. On the same counts, the results for `COc1nc(O[C@@H]2C[C@H]3C(=O)N[C@]4(C(=O)NS(=O)(=O)C5(C)CC5)C[C@H]4/C=C\CCCCCNC(=O)N3C2)cc(-c2ccccc2)n1` [Example 4, 1-Methyl-cyclopropanesulfonic acid [18-(2-methoxy-6-phenylpyrimidin-4-yloxy)-2,15-dioxo-3,14,16-triaza-tricyclo[14.3.0.0*4,6*]nonadec-7-ene-4-carbonyl]-amide] are 200 to 990 nM and 0.1 to 4.9 nM.

As to `COc1nc(O[C@@H]2C[C@H]3C(=O)N[C@]4(C(=O)NS(=O)(=O)C5(C)CC5)C[C@H]4/C=C\CCCCN(C)C(=O)[C@@H]3C2)cc(C(C)(C)C)n1` [Example 5, 1-Methyl-cyclopropanesulfonic acid [17-(6-tert-butyl-2-methoxy-pyrimidin-4-yloxy)-13-methyl-2,14-dioxo-3,13-diaza-tricyclo[13.3.0.0*4,6*]octadec-7-ene-4-carbonyl]-amide], in data set [2], the EC50 was > 10000 nM. The Ki in data set [3] lay within 100 to 1000 nM. For `COc1cc(OC2CC3C(=O)NC4(C(=O)NS(=O)(=O)C5CC5)CC4C=CCCCCCNC(=O)N3C2)nc(-c2ccccc2)n1` (stereo not shown) [Example 6, Cyclopropanesulfonic acid [18-(6-methoxy-2-phenylpyrimidin-4-yloxy)-2,15-dioxo-3,14,16-triaza-tricyclo[14.3.0.0*4,6*]nonadec-7-ene-4-carbonyl]-amide], in that order: 0.5 to 199 nM and 0.1 to 4.9 nM. In the case of `COc1cc(OC2CC3C(=O)NC4(C(=O)NS(=O)(=O)C5(C)CC5)CC4C=CCCCCN(C)C(=O)C3C2)nc(-c2ccccc2)n1` (stereo not shown) [Example 7, 1-Methyl-cyclopropanesulfonic acid [17-(6-methoxy-2-phenylpyrimidin-4-yloxy)-13-methyl-2,14-dioxo-3,13-diaza-tricyclo[13.3.0.0*4,6*]octadec-7-ene-4-carbonyl]-amide], the EC50 in data set [2] lay within 0.5 to 199 nM. Further, the Ki in data set [3] was 0.1 to 4.9 nM. As for `COc1cc(O[C@@H]2C[C@H]3C(=O)N[C@]4(C(=O)NS(=O)(=O)c5cccs5)C[C@H]4/C=C\CCCCN(C)C(=O)[C@@H]3C2)nc(-c2ccccc2)n1` [Example 9, Thiophene-2-sulfonic acid [17-(6-methoxy-2-phenylpyrimidin-4-yloxy)-13-methyl-2,14-dioxo-3,13-diaza-tricyclo[13.3.0.0*4,6*]octadec-7-ene-4-carbonyl]-amide], in data set [2], the EC50 fell in the range of 1000 to 10000 nM. With `CN1CCCC/C=C\[C@@H]2C[C@@]2(C(=O)NS(=O)(=O)C2CC2)NC(=O)[C@@H]2C[C@@H](Oc3ccnc(N4CCOCC4)n3)C[C@H]2C1=O` [Example 11, Cyclopropanesulfonic acid [13-methyl-17-(2-morpholin-4-yl-pyrimidin-4-yloxy)-2,14-dioxo-3,13-diaza-tricyclo[13.3.0.0*4,6*]octadec-7-ene-4-carbonyl]-amide], the EC50 in data set [2] was > 10000 nM. In data set [3], the Ki is 5 to 99.9 nM. Regarding `CC(C)Nc1nccc(O[C@@H]2C[C@H]3C(=O)N[C@]4(C(=O)NS(=O)(=O)C5CC5)C[C@H]4/C=C\CCCCN(C)C(=O)[C@@H]3C2)n1` [Example 12, Cyclopropanesulfonic acid [17-(2-isopropylaminopyrimidin-4-yloxy)-13-methyl-2,14-dioxo-3,13-diaza-tricyclo[13.3.0.0*4,6*]octadec-7-ene-4-carbonyl]-amide], the EC50 in data set [2] was > 10000 nM. In data set [3], this compound had a Ki of 5 to 99.9 nM. On the same counts, the results for `COc1nc(O[C@@H]2C[C@H]3C(=O)N[C@]4(C(=O)NS(=O)(=O)C5(C)CC5)C[C@H]4/C=C\CCCCN(C)C(=O)[C@@H]3C2)cc(-c2ccccc2)n1` [Example 14, 1-Methyl-cyclopropanesulfonic acid [17-(2-methoxy-6-phenyl-pyrimidin-4-yloxy)-13-methyl-2,14-dioxo-3,13-diaza-tricyclo[13.3.0.0*4,6*]octadec-7-ene-4-carbonyl]-amide] are 200 to 990 nM and 5 to 99.9 nM. On the same counts, the results for `COc1ccc(-c2cc(OC3CC4C(=O)NC5(C(=O)NS(=O)(=O)C6CC6)CC5C=CCCCCN(C)C(=O)C4C3)nc(OC)n2)cc1` (stereo not shown) [Example 16, Cyclopropanesulfonic acid {17-[2-methoxy-6-(4-methoxy-phenyl)-pyrimidin-4-yloxy]-13-methyl-2,14-dioxo-3,13-diaza-tricyclo[13.3.0.0*4,6*]octadec-7-ene-4-carbonyl}-amide] are 200 to 990 nM and 0.1 to 4.9 nM. For `CN1CCCCC=CC2CC2(C(=O)NS(=O)(=O)C2CC2)NC(=O)C2CC(Oc3cc(-c4ccccc4)nc(-c4ccccc4)n3)CC2C1=O` (stereo not shown) [Example 17, Cyclopropanesulfonic acid [17-(2,6-diphenyl-pyrimidin-4-yloxy)-13-methyl-2,14-dioxo-3,13-diaza-tricyclo[13.3.0.0*4,6*]octadec-7-ene-4-carbonyl]-amide], in that order: 200 to 990 nM and 0.1 to 4.9 nM. The compound `COc1cccc(-c2cc(O[C@@H]3C[C@H]4C(=O)N[C@]5(C(=O)NS(=O)(=O)C6CC6)C[C@H]5/C=C\CCCCN(C)C(=O)[C@@H]4C3)nc(OC)n2)c1` [Example 24, Cyclopropanesulfonic acid {17-[2-methoxy-6-(3-methoxy-phenyl)-pyrimidin-4-yloxy]-13-methyl-2,14-dioxo-3,13-diaza-tricyclo[13.3.0.0*4,6*]octadec-7-ene-4-carbonyl}-amide] registered an EC50 in data set [2] of 0.5 to 199 nM.

On to `COc1cccc(-c2cc(O[C@@H]3C[C@H]4C(=O)N[C@]5(C(=O)NS(=O)(=O)C6(C)CC6)C[C@H]5/C=C\CCCCN(C)C(=O)[C@@H]4C3)nc(OC)n2)c1` [Example 25, 1-Methyl-cyclopropanesulfonic acid {17-[2-methoxy-6-(3-methoxy-phenyl)-pyrimidin-4-yloxy]-13-methyl-2,14-dioxo-3,13-diaza-tricyclo[13.3.0.0*4,6*]octadec-7-ene-4-carbonyl}-amide], for which the EC50 in data set [2] was 0.5 to 199 nM.
